Test results published in patent publication US20240043440A1, “COMPOSITIONS AND METHODS OF MODULATING SHORT-CHAIN DEHYDROGENASE ACTIVITY” (CASE WESTERN RESERVE UNIVERSITY, priority 2017, published 2024).
Like-named read-outs stand apart in the source and are kept apart here.

Assays:
recombinant 15-PGDH = recombinant 15-PGDH (Homo sapiens (Human), UniProt P15428); test: inhibition of enzymatic activity of recombinant 15-PGDH, in vitro assay; assay type: biochemical
From the text: This Example provides data on a group of structural analogues of SW033291. Data provided is the IC50 of each compound for inhibiting enzymatic activity of recombinant 15-PGDH in an in vitro assay. Recombinant 15-PGDH is human unless otherwise specified. Additionally, the example provides aqueous solubility data for selected analogues in pH 7 or pH 4 citrate buffer solution.

[1] = chemical stability of the isolated product; assay type: physicochemical; conditions: cyclizes completely during 10 days to Examples 6 and 7
From the text: Rather, it cyclized and oxidized as described below.
The desired product 2-(butylsulfinyl)-4-(pyrimidin-5-yl)-6-(thiazol-2-yl)thieno[2,3-b]pyridin-3-amine (Example 5-4) is unstable and cyclizes completely during 10 days to Example 6, (5-(butylsulfinyl)-2-(thiazol-2-yl)-6H-pyrimido[4,5-c]thieno[2,3,4-ij][2,7]naphthyridine) and Example 7, (5-(butylsulfinyl)-2-(thiazol-2-yl)-7H-pyrimido[4,5-c]thieno[2,3,4-ij][2,7]naphthyridine) with Example 6 being the major product. The cyclized products are separable on preparative HPLC: 21.2×250 mm Kinetex 5 μm EVO C18 100 Å reversed phase column using a 2:1 ratio of water to CH3CN with a 10 mL/min flow rate and 100 μL injection volume.

[2] = metabolic stability in mouse liver microsomes; assay type: in vitro ADME; conditions: LC-MS, FIGS. 2 and 3
Protocol: The metabolic stability was determined by incubating the compounds at a concentration of 10 μM in the presence of microsomes derived from mouse livers. Compound concentrations were monitored by HPLC/MS over time, and half-lives were calculated from the slope of the best-fit line for Ln[compound] vs time.
Metabolite M8 is a thioamide resulting from oxidative cleavage of the thiazole ring. By contrast, 6 membered ring heteroaryls cannot form this metabolite or the toxic byproducts.

IL1-β treated A549 cells = test: induction of PGE2 from IL1-β treated A549 cells; assay type: cell-based; conditions: Homo sapiens; A549 cells stimulated with IL1-β for 24 hours
[3] = Enzyme Inhibitor IC50 (nM) at 5 nM 15-PGDH, 5 nM recombinant 15-PGDH
[4] = read-out: Enzyme Inhibitor IC50 (nM) at 1 nM 15-PGDH, 1 nM recombinant 15-PGDH
[5] = read-out: Enzyme Inhibitor IC50 (nM) at 5 nM 15-PGDH, 5 nM recombinant 15-PGDH
[6] = Enzyme Inhibitor IC50 (nM) at 1 nM 15-PGDH, 1 nM recombinant 15-PGDH

Sequence of recombinant 15-PGDH (P15428 whole entry): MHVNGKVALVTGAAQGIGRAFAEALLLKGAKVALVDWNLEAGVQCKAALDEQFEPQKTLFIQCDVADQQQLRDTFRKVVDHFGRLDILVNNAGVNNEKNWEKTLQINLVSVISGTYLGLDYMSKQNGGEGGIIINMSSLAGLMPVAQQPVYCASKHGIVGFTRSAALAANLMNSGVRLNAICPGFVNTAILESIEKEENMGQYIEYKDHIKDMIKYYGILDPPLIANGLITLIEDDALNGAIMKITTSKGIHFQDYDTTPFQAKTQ

Compound	IC50 (recombinant 15-PGDH; [4])	further results
CCCC[S+]([O-])c1sc2nc(-c3ccc(OC)nc3)cc(-c3ccccc3)c2c1N (centres unmarked) [compound 23]	–	IC50 (recombinant 15-PGDH; [3]): 4 to 20 nM
CCCC[S@+]([O-])c1sc2nc(-c3cccnc3)cc(-c3cnc(C)n3C)c2c1N [38B]	27 nM	–
CCCC[S+]([O-])c1sc2nc(-c3nccs3)cc3c2c1Nc1ncncc1-3 (centres unmarked) [compound 6, 5-(butylsulfinyl)-2-(thiazol-2-yl)-6H-pyrimido[4,5-c]thieno[2,3,4-ij][2,7]naphthyridine]	–	IC50 (recombinant 15-PGDH; [5]): 86 nM
CCCC[S@+]([O-])c1sc2nc(-c3cccnc3)cc(-c3cncn3C)c2c1N [43B]	> 100 nM	–
CCCC[S+]([O-])c1sc2nc(-c3cccnc3)nc(-c3ccccc3)c2c1N (single isomer, unassigned) [74B, 6-(butylsulfinyl)-4-phenyl-2-(pyridin-3-yl)thieno[2,3-d]pyrimidin-5-amine]	–	IC50 (recombinant 15-PGDH; [6]): 28 nM
CCCC[S@+]([O-])c1sc2nc(-c3cncnc3)cc(-c3ccccc3)c2c1N [42A]	30 nM	–
CCCC[S@+]([O-])c1sc2nc(-c3cncnc3)cc(-c3cnc(C)n3C)c2c1N [39B]	> 100 nM	–
CCCC[S@+]([O-])c1sc2nc(-c3cnn(C)c3)cc(-c3ccccc3)c2c1N [46B]	> 100 nM	–
CCCC[S@+]([O-])c1sc2nc(-c3cccnc3)cc(-c3ccccc3)c2c1N [41B]	27 nM	–
CCCC[S@+]([O-])c1sc2nc(-c3cccnc3)cc(-c3cccnc3)c2c1N [54B]	> 100 nM	–
CCCC[S@@+]([O-])c1sc2nc(-c3cnn(C)c3)cc(-c3ccccc3)c2c1N [46A]	0.7 nM	–
CCCC[S@@+]([O-])c1sc2nc(-c3cccnc3)cc(-c3cnc(C)n3C)c2c1N [38A]	0.76 nM	–
CCCC[S@+]([O-])c1sc2nc(-c3ccncn3)cc(-c3ccccc3)c2c1N [47B]	79 nM	–
CCCC[S+]([O-])c1sc2nc(-c3cccnc3)nc(-c3ccccc3)c2c1N (single isomer, unassigned) [74A, 6-(butylsulfinyl)-4-phenyl-2-(pyridin-3-yl)thieno[2,3-d]pyrimidin-5-amine]	–	IC50 (recombinant 15-PGDH; [6]): 0.52 nM
COCCC[S@+]([O-])c1sc2nc(-c3cccnc3)cc(-c3cncn3C)c2c1N [50B]	> 100 nM	–
CCCC[S@@+]([O-])c1sc2nc(-c3cncnc3)cc(-c3cnc(C)n3C)c2c1N [39A]	0.72 nM	–
CCCC[S@@+]([O-])c1sc2nc(-c3ccncn3)cc(-c3ccccc3)c2c1N [47A]	0.65 nM	–

Compound	IC50 (recombinant 15-PGDH; [4])	further results
COCCC[S@@+]([O-])c1sc2nc(-c3cccnc3)cc(-c3cncn3C)c2c1N [50A]	0.57 nM	–
CCCC[S+]([O-])c1sc2nc(-c3nccs3)cc(-c3cncnc3)c2c1N (centres unmarked) [Example 5-4, 2-(butylsulfinyl)-4-(pyrimidin-5-yl)-6-(thiazol-2-yl)thieno[2,3-b]pyridin-3-amine]	–	stability of the compound [1]: unstable
CCCC[S@@+]([O-])c1sc2nc(-c3cncnc3)cc(-c3ccccc3)c2c1N [42B]	0.59 nM	–
CCCC[S@@+]([O-])c1sc2nc(-c3cccnc3)cc(-c3ccccc3)c2c1N [41A]	0.73 nM	–
CCCC[S+]([O-])c1sc2nc(-c3nccs3)cc(-c3cnc(C)n3C)c2c1N (centres unmarked) [2-(butylsulfinyl)-4-(1,2-dimethyl-1H-imidazol-5-yl)-6-(thiazol-2-yl)thieno[2,3-b]pyridin-3-amine]	–	metabolites formed on incubation with mouse liver microsomes [2]: formation of metabolites derived from oxidation of the thiazole
CCCC[S@+]([O-])c1sc2nc(-c3cccnc3)cc(-c3nnc(C4CC4)n3C)c2c1N [52B]	> 100 nM	–
CCCC[S+]([O-])c1sc2nc(-c3nccs3)cc(-c3cn(C)c(C)n3)c2c1N (centres unmarked) [compound 2, 2-(butylsulfinyl)-4-(1,2-dimethyl-1H-imidazol-4-yl)-6-(thiazol-2-yl)thieno[2,3-b]pyridin-3-amine]	–	IC50 (recombinant 15-PGDH; [5]): 2.3 nM
CCCC[S@@+]([O-])c1sc2nc(-c3cccnc3)cc(-c3cnc(C4CC4)n3C)c2c1N [52A, (R)-2-(butylsulfinyl)-4-(2-cylcopropyl-1-methyl-1H-imidazol-5-yl)-6-(pyridine-3-yl)thieno[2,3-b]pyridine-3-amine]	0.75 nM	–
CCCC[S@+]([O-])c1sc2nc(-c3nccs3)cc(-c3cn(C)c(C)n3)c2c1N (stereo in doubt) [compound 3, 2-(butylsulfinyl)-4-(1,2-dimethyl-1H-imidazol-4-yl)-6-(thiazol-2-yl)thieno[2,3-b]pyridin-3-amine]	–	IC50 (recombinant 15-PGDH; [5]): > 500 nM
CCCC[S+]([O-])c1sc2nc(C3CC3)cc(-c3ccccc3)c2c1N (centres unmarked) [compound 25]	–	IC50 (recombinant 15-PGDH; [3]): 4 to 20 nM
CCCC[S@@+]([O-])c1sc2nc(-c3cccnc3)cc(-c3cncn3C)c2c1N [43A]	0.58 nM	–
CCCC[S+]([O-])c1sc2nc(-c3cnc(N)nc3)cc(-c3ccccc3)c2c1N (centres unmarked)	–	EC50 (IL1-β treated A549 cells): < 4 nM
CCCC[S@@+]([O-])c1sc2nc(-c3nccs3)cc(-c3cn(C)cn3)c2c1N [48A]	0.72 nM	–
CCCC[S@@+]([O-])c1sc2nc(-c3cccnc3)cc(-c3cccnc3)c2c1N [54A]	0.45 nM	–
CCCC[S@+]([O-])c1sc2nc(-c3nccs3)cc(-c3cn(C)cn3)c2c1N [48B]	> 100 nM	–
CCCC[S+]([O-])c1sc2nc(-c3nccs3)cc3c4c(nc1c23)NC=NC=4 (centres unmarked) [compound 7, 5-(butylsulfinyl)-2-(thiazol-2-yl)-7H-pyrimido[4,5-c]thieno[2,3,4-ij][2,7]naphthyridine]	–	IC50 (recombinant 15-PGDH; [5]): 132 nM
CCCC[S@@+]([O-])c1sc2nc(-c3nccs3)cc(-c3cn(C)c(C)n3)c2c1N (stereo in doubt) [compound 4, 2-(butylsulfinyl)-4-(1,2-dimethyl-1H-imidazol-4-yl)-6-(thiazol-2-yl)thieno[2,3-b]pyridin-3-amine]	–	IC50 (recombinant 15-PGDH; [5]): 1.4 nM

Continued, in another order:

IC50 (recombinant 15-PGDH; [4])	Compound	further results
74 nM	COCCC[S@+]([O-])c1sc2nc(-c3cccnc3)cc(-c3cn(C)cn3)c2c1N [89B]	–
41 nM	CCCC[S@+]([O-])c1sc2nc(-c3cnc(NC)nc3)cc(-c3ccccc3)c2c1N [60B]	–
0.56 nM	CCCC[S@@+]([O-])c1sc2nc(-c3ccc(N)nc3)cc(-c3ccccc3)c2c1N [62A]	–
> 100 nM	CCCC[S@+]([O-])c1sc2nc(-c3cnc(N)nc3)cc(-c3ccccc3)c2c1N [64B]	–
0.44 nM	CCCC[S@@+]([O-])c1sc2nc(-c3cnc(N)nc3)cc(-c3ccc(F)cc3)c2c1N [61A]	–
64 nM	CCCC[S@+]([O-])c1sc2nc(-c3ccc(N)nc3)cc(-c3ccccc3)c2c1N [62B]	–
0.5 nM	CCCC[S@@+]([O-])c1sc2nc(-c3cnc(NC)nc3)cc(-c3ccccc3)c2c1N [60A]	–
> 100 nM	COCCC[S@+]([O-])c1sc2nc(-c3cccnc3)cc(-c3ccccc3)c2c1N [68B]	–
0.59 nM	COCCC[S@@+]([O-])c1sc2nc(-c3cnc(N)nc3)cc(-c3ccccc3)c2c1N [65A]	–
0.36 nM	CCCC[S@@+]([O-])c1sc2nc(-c3cnc(N)nc3)cc(-c3ccccc3)c2c1N [64A]	–
0.55 nM	CCCC[S@@+]([O-])c1sc2nc(-c3cccnc3)cc(-c3ccccn3)c2c1N [58A]	–
0.77 nM	COCCC[S@@+]([O-])c1sc2nc(-c3cccnc3)cc(-c3cn(C)cn3)c2c1N [89A]	–
0.13 nM	CCCC[S@+]([O-])c1sc2nc(-c3cccnc3)cc(-c3ccccn3)c2c1N [58B]	–
30 nM	COCCC[S@+]([O-])c1sc2nc(-c3cnc(N)nc3)cc(-c3ccccc3)c2c1N [65B]	–
24 nM	CCCC[S@+]([O-])c1sc2nc(-c3cnc(N)nc3)cc(-c3ccc(F)cc3)c2c1N [61B]	–
0.48 nM	COCCC[S@@+]([O-])c1sc2nc(-c3cccnc3)cc(-c3ccccc3)c2c1N [68A]	–
